Test results taken from patent publication US20250034186A1, “ANTIVIRAL COMPOUNDS” (priority 2020, published 2025).
Where two headings read alike, the source gives them in different places.

Columns and labels:
in vitro = in vitro ADME; settings: plasma, 37° C., up to 4 h
Protocol: For plasma stability, the compounds were incubated at 2 μM in cynomolgus monkey or human plasma for up to 4 h at 37° C. At desired time points, an aliquot from the incubation was quenched by addition of 9 volumes of 100% acetonitrile supplemented with internal standard. Following the last collection, samples were centrifuged at 3000 g for 30 min and supernatants were transferred to a new plate containing an equal volume of water for analysis by liquid chromatography coupled to triple quadrupole mass spectrometry (LC-MS/MS). Data (analyte to internal standard peak area ratio) were plotted on a semi log scale and fitted using an exponential fit. The half-life (T1/2) was determined assuming first order kinetics.

RSV A2 = test: RSV NHBE EC50, RSV A2 antiviral assay; format: cell-based; settings: for EC50: human respiratory syncytial virus, 96 h, RSV A2 in NHBE cells, 4 days
Protocol: Normal human bronchial epithelial (NHBE) cells were purchased from Lonza (Walkersville, MD, Cat #CC-2540) and cultured in Bronchial Epithelial Growth Media (BEGM) (Lonza, Walkersville, MD, Cat #CC-3170). The cells were passaged 1-2 times per week to maintain <80% confluency. The NHBE cells were discarded after 6 passages in culture.
To conduct the RSV A2 antiviral assay, NHBE cells were plated in 96-well plates at a density of 7,500 cells per well in BEGM and allowed to attach overnight at 37° C. Following attachment, 100 μL of cell culture media was removed and 3-fold serially diluted compound was added using a Hewlett-Packard D300 Digital Dispenser. The final concentration of DMSO was normalized to 0.05%. Following compound addition, the NHBE cells were infected by the addition of 100 μL of RSV A2 at a titer of 1×10^4.5 tissue culture infectious doses/mL in BEGM and then incubated at 37° C. for 4 days. The NHBE cells were then allowed to equilibrate to 25° C. and cell viability was determined by removing 100 μL of culture medium and adding 100 μL of Cell-Titer Glo viability reagent. The mixtures were incubated for 10 minutes at 25° C., and the luminescence signal was quantified on an Envision luminescence plate reader.

HRV1a = test: HRV1A HeLa EC50; format: cell-based, human rhinovirus; settings: for EC50: Human rhinovirus sp., HRV1A, HeLa, 96 h, read-out: HRV1A HeLa EC50
Protocol: H1-HeLa cells, cultured in complete RPMI 1640 medium containing 10% heat-inactivated FBS and 1% Penicillin/Streptomycin, were seeded in 96 well plates at 5000 cells/well one day prior to compound dosing and infection. The antiviral activity of each compound was measured in triplicate. Compounds were added directly to the cell cultures in serial 3-fold dilutions using the HP300 digital dispenser (Hewlett Packard, Palo Alto, CA) immediately prior to infection. The plates were transferred to BSL-2 containment and 100 μL of 1/4000 dilution of HRV1a virus stock was added to each well containing cells and serially diluted compounds. Each plate included 6 wells of infected untreated cells and 6 wells of cells containing 5 μM Rupintrivir that served as 0% and 100% virus inhibition control, respectively. Following the infection, test plates were incubated for 96 h in a tissue culture incubator set to 37° C./5% CO2. Following incubation, the H1-HeLa cells were removed from incubation and allowed to equilibrate to 25° C. Cell viability was determined by removing 100 μL of culture medium and adding 100 μL of Cell-Titer Glo viability reagent. The mixtures were incubated on a shaker for 10 minutes at 25° C., and the luminescence signal was quantified on an Envision luminescence plate reader.

HRVc15 replicon = test: HRVc15 HeLa replicon EC50; format: cell-based, human rhinovirus; settings: for EC50: Human rhinovirus sp., HRV15, HRVc15 replicon in H1-HeLa cells, 48 hrs, luciferase, read-out: HRV15 Rep EC50
Protocol: First, HRV replicon RNA is prepared. 5 μg of DNA Template (HRVc15 or HRVc25) is linearized with 2 μL of MluI enzyme in NEB buffer-3 in a final volume of 25 μL for 3 hours at 37° C. Following incubation, linearized DNA is purified on a PCR purification column and the following in vitro transcription is performed using the following conditions: 10 μL of RiboMAX Express T7 2× buffer, 1-8 μL of linear DNA template (1 μg), 0-7 μL nuclease free water, 2 μL enzyme mix T7 express. The final volume of 20 μL is mixed and incubated at 37° C. for 30 min. Following incubation, 1 μL of RQ1 RNase free DNase is added and the mixture is incubated at 37° C. for 15 min. The resulting RNA is then purified with the MegaClear Kit (Gibco Life Technologies Cat #11835-030) and is eluted two times with 50 μL of elution buffer at 95° C. H1-HeLa cells cultured in complete RPMI 1640 media containing 10% heat-inactivated FBS and 1% Penicillin/Streptomycin are seeded into T-225 flasks at a concentration of 2E6 cells/flask a day prior to transfection and are incubated at 37° C./5% CO2 overnight. On the day of transfection, cells are trypsinized following standard cell culture protocols and are washed two times with PBS. Following washes, cells are resuspended at a concentration of 1E7 cells/mL in PBS and the suspension is stored on wet ice. Electroporation is used to introduce replicon RNA into the H1-HeLa cells. A final volume of 10 μL containing 10 μg of replicon c15 or 1 μg of c25 replicon RNA, respectively, are pipetted into a 4 mm electroporation cuvette. The H1-HeLa cell stock is mixed by gently swirling and 0.5 mL of the cell stock previously prepared is transferred into the cuvette containing the replicon RNA. The combined solution is flicked to mix. Following mixing, cells are immediately electroporated using the following settings: 900V, 25 uF, infinite resistance, 1 pulse. Cuvettes are rested on ice for 10 min. Following the 10 min incubation, add 19 mL of ambient temperature, phenol red-free and antibiotic-free RPMI 1640 containing 10% heat-inactivated FBS per electroporation. 150 μL (4E4 cells) of the electroporated cell suspension are seeded per well into a 96 well clear-bottom, white cell culture plate, and are incubated at 25° C. for 30 min. […] Replicon activity is then measured by a Renilla-Glo Luciferase Assay system. Prior to signal quantification, plates are removed from incubators and are allowed to equilibrate to 25° C. after 50 uL is removed from each well. […] Plates are then incubated for 20 min at 25° C. under gentle agitation and luciferase signal are determined with a 0.1 second detection setting using an EnVision luciferase quantification reader.

[1] = cynomolgus monkey, read-out: Cyno Plasma t1/2
[2] = human, read-out: Hum Plasma t1/2

| Structure (SMILES) | half-life at 2 μM (in vitro; [1]) [h] | half-life at 2 μM (in vitro; [2]) [h] | more potent than the compound of Formula Ib, RSV NHBE (RSV A2; EC50 ratio vs Formula Ib) | more potent relative to compound 1, RSV NHBE (RSV A2; EC50 ratio vs compound 1) | times more potent relative to compound 3, RSV NHBE (RSV A2; EC50 ratio vs compound 3) | times more potent relative to compound 4, RSV NHBE (RSV A2; EC50 ratio vs compound 4) | times more potent relative to compound 5, RSV NHBE (RSV A2; EC50 ratio vs compound 5) | EC50 (RSV A2) [nM] | times more potent relative to compound 1, HRV1A HeLa (HRV1a; EC50 ratio vs compound 1) [times] | times more potent compared to compound 2, HRV1A HeLa (HRV1a; EC50 ratio vs compound 2) | times more potent relative to compound 3, HRV1A HeLa (HRV1a; EC50 ratio vs compound 3) | times more potent relative to compound 5, HRV1A HeLa (HRV1a; EC50 ratio vs compound 5) | EC50 (HRV1a) [nM] | times more potent compared to compound 2, HRV15 Rep (HRVc15 replicon; EC50 ratio vs compound 2) | EC50 (HRVc15 replicon) [nM] | times as potent as compound 7, RSV NHBE (RSV A2; EC50 ratio vs compound 7) [times] |
| --- | --- | --- | --- | --- | --- | --- | --- | --- | --- | --- | --- | --- | --- | --- | --- | --- |
| C[C@H](N[P@](=O)(OC[C@@]1(C#N)O[C@@H](c2ccc3c(N)ncnn23)[C@H](O)[C@@H]1O)Oc1ccccc1)C(=O)OC1CCCCC1 [Formula I, cyclohexyl ((S)-(((2R,3S,4R,5S)-5-(4-aminopyrrolo[2,1-f][1,2,4]triazin-7-yl)-2-cyano-3,4-dihydroxytetrahydrofuran-2-yl)methoxy)(phenoxy)phosphoryl)-L-alaninate] | 7.4 | 8.05 | 5.1 | ~4.4 | about 9.3 times | about 7.1 times | about 10.0 times | 124 | ~51.1 | about 12.1 times | about 91.9 times | about 203.1 times | 8 | about 2.3 times | 9 |  |
| CCC(CC)COC(=O)[C@H](C)N[P@](=O)(OC[C@@]1(C#N)O[C@@H](c2ccc3c(N)ncnn23)[C@H](O)[C@@H]1O)Oc1ccccc1 [Compound 6, 2-ethylbutyl ((S)-(((2R,3S,4R,5S)-5-(4-aminopyrrolo[2,1-f][1,2,4]triazin-7-yl)-2-cyano-3,4-dihydroxytetrahydrofuran-2-yl)methoxy)(phenoxy)phosphoryl)alaninate] | 4.28 | 2.18 |  |  |  |  |  | 127 |  |  |  |  |  |  | 17 | 0.7 |
| CCOC(=O)[C@H](C)NP(=O)(OC[C@@]1(C#N)O[C@@H](c2ccc3c(N)ncnn23)[C@H](O)[C@@H]1O)Oc1ccccc1 (stereo partly shown) [Compound 1, reference compound] |  | 11.1 |  |  |  |  |  | 549 |  |  |  |  | 409 |  |  |  |
| CCC(CC)COC(=O)[C@H](C)NP(=O)(OC[C@@]1(C#N)O[C@@H](c2ccc3c(N)ncnn23)[C@H](O)[C@@H]1O)Oc1ccccc1 (stereo partly shown) [Compound 2, reference compound] | 4.82 | 2.53 |  |  |  |  |  | 75 |  |  |  |  | 97 |  | 21 |  |
